≈ marks a conversion by molar mass, not a printed value. Where two headings read alike, the source gives them in different places.

The text below walks through data of patent publication US5028613A, “Novel pyrroloquinoline alkaloids and methods of use” (Repligen Corporation, priority 1990, dated 1991).

The subject of assay [1] is C. albicans. Briefly: C. albicans MIC (microtiter broth dilution). It is filed as cell-based, Candida albicans (ATCC strain 44506). The conditions noted are these: Candida albicans, read-out: C. albicans MIC. The procedure: (§1) All media were autoclaved at 121° C. for 15 minutes. Candida albicans: C. albicans (ATCC strain 44506) was grown on Sabouraud dextrose agar to produce single colonies, one of which was used to inoculate Sabouraud dextrose broth. The broth was incubated at 37° C. with shaking at 200 rpm for 18 hours. The resultant culture was brought to 10% (v/v) glycerol, frozen at -80° C., and used as the inoculum for the anti-Candida assay. Aspergillus nidulans: A. nidulans (ATCC strain 36321) was grown from a spore stock on the surface of a YAG plate (YAG: yeast extract 0.5%; glucose 2%; agar 2%) at 30° C. until the colony sporulated; at this point the colony was green (usually within one week). Spores were harvested by washing with 0.1% (v/v) TRITON™ X-100. Spores were then washed with distilled water before freezing at -80° C. in the presence of 10% (v/v) glycerol. Bacillus subtilis: Standard spore stocks (ATCC strain 6633) were purchased from Difco (#0453-36-0). Escherichia coli: The BMR strain was used. This was grown overnight with shaking at 37° C. in nutrient broth and frozen in 1 mL aliquots in the presence of 10% (v/v) glycerol at -80° C. Pseudomonas aeruginosa: (ATCC strain 27853) Grown and stored as described for E. coli.
Two-fold dilutions of the drug/extract were prepared in 50 μL volumes of a suitable solvent using 96-well microtiter plates. A 25% mixture of MeOH in water was generally used; however, EtOH, 5% EtOAc in EtOH, DMSO, or other compatible solvents could be substituted if necessary. In a separate 96-well plate, 35 μL volumes of either Sabouraud dextrose broth or RPMI-1640 were placed in each well. The drug/extract (5 μL) was then transferred to the broth using a 12-place pipettor. An inoculum of C. albicans in the appropriate medium was added to give a cell density of 1000 cells/mL and a total volume of 50 μL. […] SDB plates were incubated at 37° C. overnight, RPMI-1640 plates were incubated at 37° C. in a humidified atmosphere of 10% CO2.

In assay [2] the test system is A549 cell line. Briefly: A549 cell assay (analogous MTT procedure). The assay is classed as cell-based. The conditions noted are these: Homo sapiens, procedure analogous to P388. The procedure: (§2) To assess the antiproliferative effects of agents against P388 cells, 200 μl cultures (96-well tissue culture plates, Nunc, Denmark) were established at 1×10^5 cells/ml in drug-free medium containing agents at various concentrations. After 48 hour exposures, P388 cells were enumerated using 3-[4,5-dimethylthiazol-2-yl]-2,5-diphenyltetrazolium bromide (MTT) as described below.
(§3) To quantitate the effects of agents on cell proliferation, 75 μl warm growth medium containing 5 mg/ml MTT was added to each well. Cultures were returned to the incubator and left undisturbed for 90 minutes. To spectrophotometrically quantitate formation of reduced formazan, plates were centrifuges (900 g, 5 minutes), culture fluids were removed by aspiration, and 200 μl of acidified isopropanol (2 ml concentrated HCl/L isopropanol) added per well. The absorbance of the resulting solutions were measured at 570 nm with a plate reader (MR700 Microplate Reader, Dynatech Laboratories, Chantilly, Va.). […] A linear relationship between P388 cell number and formazan production was found over the range of cell densities observed in this study.
(§4) Analogous procedures were followed for the A549 and HT29 cell lines.

In assay [3] the test system is HT29 cell line. Briefly: HT29 cell assay (analogous MTT procedure). The note with it: Homo sapiens, HT-29; procedure analogous to P388. It is filed as cell-based. On the procedure:
as §2, §3, §4

Assay [4] has as its system B. subtilis. The assay can be described thus: B. subtilis growth inhibition (disc diffusion assay). It is filed as cell-based, Bacillus subtilis (ATCC strain 6633). The conditions noted are these: result in words. On the procedure:
as §1, with “This was grown overnight with shaking at 37° C. in nutrient broth and frozen in 1 mL aliquots in the presence of 10% (v/v) glycerol at -80° C. Pseudomonas aeruginosa: (ATCC strain 27853) Grown and stored as described for E. coli.” left out
Paper discs (6.35 mm) were impregnated with the test substance and allowed to dry. […] Plates were incubated overnight (C. albicans, B. subtilis, E. coli, and P. aeruginosa 37° C.; and A. nidulans 30° C.) after which time the zones of growth inhibition could be read. These are expressed as the diameter of the zone in millimeters. […]

In assay [5] the test system is P388 murine leukemia cells. The assay can be described thus: P388 mouse leukemia cell antiproliferative assay (MTT). It is filed as cell-based. The note with it: 48 hour exposure. On the procedure: P388 murine leukemia cells obtained from Dr. J. Mayo, National Cancer Institute, Bethesda, Md., were maintained in Roswell Park Memorial Institute medium 1640 (RPMI-1640) supplemented with 10% horse serum and cultured in plastic tissue culture flasks and kept in an incubator at 37° C. in humidified air containing 5% CO2. Antibiotic-free stock cultures of P388 cells were subcultured to 10^5 cells/ml by dilutions in fresh growth medium at 2 to 5 day intervals.
as §2, §3

Setting [6] is: lowest concentration completely inhibiting growth.

In the case of `CSc1c2c3c(n1C)C(=O)C(N)=C(Cl)C3=NCC2` [Isobatzelline A], the MIC in assay [1] (setting [6]) is 3.1 µg/mL (≈ 11 µM). The IC50 amounted to 0.07 µg/mL (≈ 0.248 µM) in assay [2], 0.44 µg/mL (≈ 1.56 µM) in assay [3] and 0.42 µg/mL (≈ 1.49 µM) in assay [5]. In addition, the “inhibition of the growth of B. subtilis” value in assay [4] is on record as “inhibit the growth of B. subtilis”.
Take `CSc1c2c3c(n1C)C(=O)C(N)=CC3=NCC2` [Isobatzelline B]: the MIC in assay [1] (setting [6]) came out at 25 µg/mL (≈ 101 µM). Also, the results for the IC50 in assay [2], in assay [3] and in assay [5] were 2.8 µg/mL (≈ 11.3 µM), 2.5 µg/mL (≈ 10.1 µM) and 2.6 µg/mL (≈ 10.5 µM), respectively.
For `Cn1cc2c3c1C(=O)C(N)=C(Cl)C3=NCC2` [Isobatzelline C], the MIC in assay [1] is 50 µg/mL (≈ 212 µM). The IC50 is above 20 µg/mL in assay [2], 10 µg/mL (≈ 42.4 µM) in assay [3] and 12.6 µg/mL (≈ 53.5 µM) in assay [5].
`CSc1c2ccnc3c2c(n1C)C(=O)C(N)=C3Cl` [Isobatzelline D]: the MIC in assay [1] (setting [6]) worked out at 25 µg/mL (≈ 89.4 µM). The IC50 in assay [2] was above 20 µg/mL; in assay [3] it was above 20 µg/mL; in assay [5], 20 µg/mL (≈ 71.5 µM).

Broadly, the MIC is the least concentration at which growth counts as inhibited. In general, IC50 refers to the concentration at which inhibition is half-maximal.
